One assay relates to rat CIA model. The experiment in a line: Rat collagen induced arthritis (CIA) model. The assay is classed as in vivo. The following applies: p.o., therapeutic dosing day 16 to day 30. The procedure: Completed Freund's adjuvant (CFA) and incomplete Freund's adjuvant (IFA) were purchased from Difco. Bovine collagen type II (CII), lipopolysaccharide (LPS), and Enbrel was obtained from Chondrex (Isle d'Abeau, France); Sigma (P4252, L'Isle d'Abeau, France), Whyett (25 mg injectable syringe, France) Acros Organics (Palo Alto, Calif.), respectively. All other reagents used were of reagent grade and all solvents were of analytical grade.
Dark Agouti rats (male, 7-8 weeks old) were obtained from Harlan Laboratories (Maison-Alfort, France). Rats were kept on a 12 h light/dark cycle (0700-1900). Temperature was maintained at 22° C., and food and water were provided ad libitum.
One day before the experiment, CII solution (2 mg/mL) was prepared with 0.05 M acetic acid and stored at 4° C. Just before the immunization, equal volumes of adjuvant (IFA) and CII were mixed by a homogenizer in a pre-cooled glass bottle in an ice water bath. Extra adjuvant and prolonged homogenization may be required if an emulsion is not formed. […]
Arthritis is scored according to the method of Khachigian 2006, Lin et al 2007 and Nishida et al. 2004). […]
The area under the curve (AUC) from day 1 to day 14 was calculated for each individual rat. The AUC of each animal was divided by the average AUC obtained for the vehicle in the study from which the data on that animal was obtained and multiplied by 100 (i.e. the AUC was expressed as a percentage of the average vehicle AUC per study).
The clinical score difference for each animal was divided by the average clinical score difference obtained for the vehicle in the study from which the data on that animal was obtained and multiplied by 100 (i.e. the difference was expressed as a percentage of the average clinical score difference for the vehicle per study).
Clinically, body weight loss is associated with arthritis (Shelton et al., 2005; Rall, 2004; Walsmith et al., 2004). […] The change in body weight (%) after onset of arthritis was calculated as follows: […]

The target of a further assay is T1, JAK1 (Homo sapiens, UniProt P23458).
T1 construct: Recombinant human JAK1 (catalytic domain, amino acids 866-1154; catalog number PV4774) was purchased from Invitrogen; purchased Invitrogen PV4774
T1 sequence (P23458 866-1154): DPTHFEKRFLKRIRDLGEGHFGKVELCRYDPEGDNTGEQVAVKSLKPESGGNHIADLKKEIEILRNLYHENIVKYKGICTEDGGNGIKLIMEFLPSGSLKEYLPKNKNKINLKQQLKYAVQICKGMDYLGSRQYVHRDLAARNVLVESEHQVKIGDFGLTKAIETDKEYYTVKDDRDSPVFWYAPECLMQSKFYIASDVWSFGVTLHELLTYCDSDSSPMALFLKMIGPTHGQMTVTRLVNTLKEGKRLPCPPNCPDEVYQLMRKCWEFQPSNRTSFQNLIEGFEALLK
The experiment in a line: JAK1 Ki determination assay. The assay is classed as biochemical. The note with it: Lineweaver-Burk, varying ATP; read-out: Ki against JAK1. The procedure: For the determination of Ki, different amounts of compound were mixed with the enzyme and the enzymatic reaction was followed as a function of ATP concentration. The Ki was determined by means of double reciprocal plotting of Km vs compound concentration (Lineweaver-Burk plot). 1 ng of JAK1 (Invitrogen, PV4774) is used in the assay. The substrate was 50 nM Ulight-JAK-1 (Tyr1023) Peptide (Perkin Elmer, TRF0121) The reaction is performed in 25 mM MOPS pH 6.8, 0.01%, 2 mM DTT, 5 mM MgCl2 Brij-35 with varying concentrations of ATP and compound. Phosphorylated substrate was measured using an Eu-labeled anti-phosphotyrosine antibody PT66 (Perkin Elmer, AD0068) as described in 1.1.2. Readout was performed on the envision (Perkin Elmer) with excitation at 320 nm and emission followed at 615 nm and 665 nm.

The target in a further assay is T2, JAK2 (Homo sapiens, UniProt O60674).
T2 construct: Recombinant human JAK2 catalytic domain (amino acids 808-1132; catalog number PV4210) was purchased from Invitrogen; purchased Invitrogen PV4210
T2 sequence (O60674 808-1132): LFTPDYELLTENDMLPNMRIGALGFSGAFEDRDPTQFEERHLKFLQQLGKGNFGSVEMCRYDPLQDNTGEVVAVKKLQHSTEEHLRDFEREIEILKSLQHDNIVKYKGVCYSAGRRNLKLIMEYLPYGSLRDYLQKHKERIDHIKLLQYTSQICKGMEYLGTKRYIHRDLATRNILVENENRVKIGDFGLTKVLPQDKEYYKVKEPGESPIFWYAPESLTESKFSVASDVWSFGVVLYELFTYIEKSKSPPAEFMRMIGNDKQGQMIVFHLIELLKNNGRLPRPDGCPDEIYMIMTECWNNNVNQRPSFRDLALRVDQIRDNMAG
Briefly: JAK2 Ulight-JAK1 peptide assay. It is filed as biochemical. The protocol:
Recombinant human JAK2 (catalytic domain, amino acids […]; catalog number PV4210) was purchased from Invitrogen. 0.0125 mU of JAK2 was incubated with 25 nM Ulight-JAK1(tyr1023) peptide (Perkin Elmer catalog number TRF0121) in kinase reaction buffer (25 mM HEPES pH7.0, 0.01% Triton X-100, 7.5 mM MgCl2, 2 mM DTT, 7.5 μM ATP) with or without 4 μL containing test compound or vehicle (DMSO, 1% final concentration), in a total volume of 20 μL, in a white 384 Opti plate (Perkin Elmer, catalog number 6007290). After 60 min at rt, reactions were stopped by adding 20 μL/well of detection mixture (1× detection buffer (Perkin Elmer, catalog number CR97-100C), 0.5 nM Europium-anti-phosphotyrosine (PT66) (Perkin Elmer, catalog number AD0068), 10 mM EDTA). Readout is performed using the Envision with excitation at 320 nm and measuring emission at 615 nm (Perkin Elmer). Kinase activity was calculated by subtracting relative fluorescence units (RFU) obtained in the presence of a positive control inhibitor (10 μM staurosporine) from RFU obtained in the presence of vehicle. The ability of a test compound to inhibit this activity was determined as:
Percentage inhibition=((RFU determined for sample with test compound present−RFU determined for sample with positive control inhibitor) divided by (RFU determined in the presence of vehicle−RFU determined for sample with positive control inhibitor))*100. […]

Values joined by “and” are separate entries in the source; they are usually repeats but may differ in a detail not shown here. Equal values may be shown once.

Regarding `CCc1cc(C2=CCN(C(=O)CC#N)CC2)ccc1N(C)c1cc2c(cn1)ncn2C` [Compound 1], the “efficacy in rat CIA model” value in the assay on rat CIA model (1 mg/kg), in the assay on rat CIA model (3 mg/kg) and in the assay with rat CIA model (10 mg/kg) was “statistically significant efficacy” throughout. For the same compound, the inhibitory constant (Ki) (usually the dissociation constant of the complex between target and ligand, obtained from inhibition or displacement) at JAK1 was determined as 3.69 nM. In addition, the “JAK1 selectivity vs JAK2” value on JAK2 was determined as 28 fold. Besides, on JAK2 (Ulight-JAK1(tyr1023) peptide, 7.5 μM ATP, individual determinations, read-out: IC50 against JAK2), the IC50 (as a rule, the midpoint of a concentration-inhibition curve) was 61.5 nM and 108 nM and 101 nM and 42.9 nM and 26.4 nM and 155 nM and 35.7 nM and 30.5 nM.

Values taken from patent US20130217722A1, “NOVEL COMPOUND USEFUL FOR THE TREATMENT OF DEGENERATIVE AND INFLAMMATORY DISEASES” (priority 2012, published 2013).
